Test results from patent US20250228865A1, “COMPOUNDS FOR ENHANCING READ THROUGH OF GENES CONTAINING PREMATURE TERMINATION CODONS AND METHODS FOR MAKING AND USING THE SAME” (Sanofi US Services Inc., priority 2022, published 2025).

Tests used:
[1] = system: recombinant human CFTR carrying the premature stop codon (PTC) mutation G542X; assay: CFTR-PTC mutant translation readthrough, Nanoluc tagged CFTR luminescence (G542X cell line); type: cell-based; conditions: in combination with G418, G542X cell line; for CFTR G542X ACTIVITY Fold 10 μM G-418: fold over 10 μM G-418; for EC50: 16HBE cells
Summary of the method: (§1)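 16HBE cells stably expressing Nanoluc-tagged human CFTR with G542X or R1162X, in medium with 3 μM VX-809, treated 48 h at 37 °C with compound (10-point, 2-fold, top 50 μM final) alone or with 10 μM G418. Live-cell Nanoluc luminescence normalised to a maximally effective G418 (125-250 μM).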

[2] = system: recombinant human CFTR carrying the premature stop codon (PTC) mutation R1162X; assay: CFTR-PTC mutant translation readthrough, Nanoluc tagged CFTR luminescence (R1162X cell line); type: cell-based; conditions: for CFTR R1162X ACTIVITY Fold 10 μM G-418: fold over 10 μM G-418, in combination with G418; for EC50: in combination with G418, 16HBE cells, read-out: CFTR R1162X ACTIVITY EC50
Summary of the method: as §1

EC50 [1]	EC50 [2]	Compound	CFTR G542X ACTIVITY Fold 10 μM G-418 [1]	CFTR R1162X ACTIVITY Fold 10 μM G-418 [2]
> 10 µM	> 10 µM	Cc1cccc(C(F)(F)F)c1COc1ccc2nc(CO)cn2c1	A′ (A′ = ≥10X)	A′ (A′ = ≥10X)
> 10 µM	> 10 µM	CCCCN1CC(=O)N(c2ncc(OCc3c(Cl)cccc3Cl)cn2)C1=O [1-butyl-3-[5-[(2,6-dichlorophenyl)methoxy]pyrimidin-2-yl]imidazolidine-2,4-dione]	–	C′ (C′ = <5X)
< 1 µM	1 to 10 µM	OCc1cnn(-c2ncc(OCc3c(Cl)cccc3C(F)(F)F)cn2)n1	A′ (A′ = ≥10X)	–
1 to 10 µM	1 to 10 µM	O=C1O[C@@H](CO)CN1c1ccc(OCc2c(Cl)cccc2C(F)(F)F)cn1	A′ (A′ = ≥10X)	A′ (A′ = ≥10X)
1 to 10 µM	1 to 10 µM	OCc1ncn(-c2ccc(OCc3c(Cl)cccc3Cl)cc2)n1 [[1-[4-[(2,6-dichlorophenyl)methoxy]phenyl]-1,2,4-triazol-3-yl]methanol]	A′ (A′ = ≥10X)	A′ (A′ = ≥10X)
< 1 µM	1 to 10 µM	OCc1ncn(-c2ncc(OCc3c(Cl)cccc3C(F)(F)F)cn2)n1	A′ (A′ = ≥10X)	A′ (A′ = ≥10X)
< 1 µM	< 1 µM	OC1CCN(c2ncc(OCc3c(Cl)cccc3Cl)cn2)CC1 [1-[5-[(2,6-dichlorophenyl)methoxy]pyrimidin-2-yl]piperidin-4-ol]	A′ (A′ = ≥10X)	A′ (A′ = ≥10X)
< 1 µM	1 to 10 µM	Clc1cccc(Cl)c1COc1cnc(N2CCC3(CCO3)C2)nc1 (stereo not shown) [7-[5-[(2,6-dichlorophenyl)methoxy]pyrimidin-2-yl]-1-oxa-7-azaspiro[3.4]octane]	A′ (A′ = ≥10X)	A′ (A′ = ≥10X)
1 to 10 µM	1 to 10 µM	O=C(CO)N1CCN(c2ncc(OCc3c(Cl)cccc3Cl)cn2)CC1	A′ (A′ = ≥10X)	A′ (A′ = ≥10X)
< 1 µM	< 1 µM	Cc1cccc(C(F)(F)F)c1COc1cnc(N2CCC(O)(c3cccnc3)CC2)nc1	A′ (A′ = ≥10X)	A′ (A′ = ≥10X)
> 10 µM	> 10 µM	O=C1OC(CO)CN1c1ncc(CCc2c(Cl)cccc2Cl)cn1 (stereo not shown)	–	–
< 1 µM	< 1 µM	Cc1cccc(C(F)(F)F)c1COc1cnc(N2C(=O)CN(Cc3ccccc3)C2=O)nc1	A′ (A′ = ≥10X)	A′ (A′ = ≥10X)
1 to 10 µM	1 to 10 µM	CC(=O)N1CCN(c2ncc(OCc3c(Cl)cccc3Cl)cn2)CC1 [1-[4-[5-[(2,6-dichlorophenyl)methoxy]pyrimidin-2-yl]piperazin-1-yl]ethanone]	A′ (A′ = ≥10X)	A′ (A′ = ≥10X)
< 1 µM	< 1 µM	OCC1CN(c2ccc(OCc3c(Cl)cccc3C(F)(F)F)cn2)CCO1 (stereo not shown)	A′ (A′ = ≥10X)	A′ (A′ = ≥10X)
> 10 µM	> 10 µM	COc1cccc(Cl)c1COc1ccc(N2CC(CO)OC2=O)cc1 (stereo not shown)	C′ (C′ = <5X)	C′ (C′ = <5X)
1 to 10 µM	1 to 10 µM	OCc1nc(-c2ccc(OCc3c(Cl)cccc3Cl)cn2)no1 [[3-[5-[(2,6-dichlorophenyl)methoxy]-2-pyridyl]-1,2,4-oxadiazol-5-yl]methanol]	A′ (A′ = ≥10X)	A′ (A′ = ≥10X)
1 to 10 µM	1 to 10 µM	Clc1cccc(Cl)c1COc1cnc(N2C[C@H]3COC[C@H]3C2)nc1	A′ (A′ = ≥10X)	A′ (A′ = ≥10X)
